Molecular target: ScoE (Streptomyces coeruleorubidus, UniProt A0A3B6UEU3)
Settings: alpha-KG, Fe(II)

C[C@H](CC(=O)O)/N=C/C(=O)O [compound 2, imine CABA]
Km: 369 ± 40 µM
